Experiments:
[1] = tested on: Target C mRNA; assay: Gene panel canonical junction qPCR assay, Target C CJ mRNA decrease; assay type: cell-based; settings: Homo sapiens, canonical junction qPCR, read-out: Target C IC50 (decrease in CJ mRNA levels)
Method in brief: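 A673 or K562 cells treated with compound; canonical exon-exon junction mRNA quantified by cDNA synthesis and RT-qPCR with junction-spanning primer/probe, normalized to GAPDH, GUSB or PPIA and DMSO (2^(−ΔΔCt)). Percent response from set ΔCt assay windows fitted to 4-parameter logistic; IC50 for CJ decrease.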

[2] = tested on: HiBiT-tagged MYB protein; assay: HiBiT protein abundance assay, MYB (K562 HiBiT knock-in cells); assay type: cell-based, human; settings: 24 hours
Description: Compounds described herein were used to screen for effects on quantitative protein abundance using a HiBit assay system (Promega). Quantitative protein abundance was determined by measuring the protein levels of HiBit-tagged protein targets expressed in cell culture via luminescence using the Nano-Glo HiBiT Lytic Detection System, which uses a split complementation assay format to reconstitute NanoBiT enzyme to generate a luminescent signal. A protein abundance assay was developed such that endogenous protein targets could be modified with the HiBiT peptide tag and their abundance could be assessed after compound treatment. Briefly, K562 cell lines containing a HiBiT-modification were treated with various compounds described herein (e.g., compounds of Formulas (I), (II), or (III)). After treatment for 24 hours, the protein abundance of a specific target was determined by measuring luminescence.
• Promega Nano-Glo HiBiT Lytic Detection System (cat #N3030) • Corning 384-well TC-treated microplates (cat #3570) • Synthego Engineered Cells Knock-In Clones
Cells were maintained in IMDM with 10% FBS. Before the assay, cells were diluted with […] growth media (IMDM+1% FBS media) and were seeded in a 384-well plate at a density of 10000 cells/well (for each cell line listed in Table 6). Each compound was prepared as a 10-point 3-fold serial dilution in DMSO with the top dose at a final concentration of 10 μM in the well. Unmodified K562 cells were added at the previously specified density with DMSO to serve as an assay baseline and positive control (PC) and DMSO only with the respective modified cell lines was added to the negative control (NC) columns. Final DMSO concentration was kept at or below 0.25%. Treated cell plates were placed in an incubator at 37° C. with 5% CO2 for 24 hours. After 24 hours, 25 μL of Complete HiBit Lytic reagent was added to each well at room temperature (e.g. one plate requiring 10 mL Lytic Buffer, 100 μL LgBiT Protein, 200 μL Lytic Substrate), shaken for 5 minutes at 600 RPM, then left to sit for 10 minutes for signal to stabilize before reading on a Spark Cyto plate reader (Tecan) with a 500 ms measurement time.
To determine compound effects on protein abundance of each target in Table 6, the percent response for each respective cell line was calculated at each compound concentration as follows:
For the normalized response at each concentration, a four-parameter logistical regression was fit to the data and the response was interpolated at the 50% value to determine a concentration for protein abundance at 50% (IC50) the untreated control.

| Structure (SMILES) | IC50 [1] | IC50 [2] |
| --- | --- | --- |
| Cc1cn2cc(NC(=O)c3ccc(N4C[C@@H](C)N[C@@H](C)C4)c4ncc(N(C)C)nc34)cc(F)c2n1 [Compound 283] | 0.1 to 1 µM | < 100 nM |
| Cc1cn2cc(NC(=O)c3ccc(N4C[C@@H](C)N[C@@H](C)C4)c4ncc(O)nc34)cc(F)c2n1 [Compound 275] | > 10 µM | > 10000 nM |
| COc1nc(NC(=O)c2ccc(N3C[C@@H](C)N[C@@H](C)C3)c3nccnc23)cn2cc(C)nc12 [Compound 277] | 1 to 10 µM | < 100 nM |
| Cc1cn2cc(NC(=O)c3ccc(N4CCNCC4)c4nccnc34)cc(F)c2n1 [Compound 111] | 1 to 10 µM | < 100 nM |
| Cc1cn2cc(NC(=O)c3ccc(N4CCN5CCOC[C@H]5C4)c4nccnc34)cc(F)c2n1 [Compound 256, (R)—N-(8-fluoro-2-methylimidazo[1,2-a]pyridin-6-yl)-8-(hexahydropyrazino[2,1-c][1,4]oxazin-8(1H)-yl)quinoxaline-5-carboxamide] | 1 to 10 µM | 1000 to 10000 nM |
| Cc1cn2c(C)c(NC(=O)c3ccc(N4C[C@@H](C)N[C@@H](C)C4)c4nccnc34)cc(F)c2n1 [Compound 285] | 1 to 10 µM | 100 to 1000 nM |
| Cc1cn2cc(NC(=O)c3ccc(N4CCN5CCOC[C@@H]5C4)c4nccnc34)cc(F)c2n1 [Compound 255, (S)—N-(8-fluoro-2-methylimidazo[1,2-a]pyridin-6-yl)-8-(hexahydropyrazino[2,1-c][1,4]oxazin-8(1H)-yl)quinoxaline-5-carboxamide] | 0.1 to 1 µM | 100 to 1000 nM |
| Cc1cn2cc(NC(=O)c3ccc(N4CCNCC4)c4ccnnc34)ncc2n1 [Compound 120] | > 10 µM | 100 to 1000 nM |
| Cn1cc2ccc(NC(=O)c3ccc(N4CCNCC4)c4ccnnc34)cc2n1 [Compound 115] | > 10 µM | > 10000 nM |
| Cc1cn2cc(NC(=O)c3ccc(C4=CCNCC4)c4nccnc34)cc(F)c2n1 [Compound 240, N-{8-fluoro-2-methylimidazo[1,2-a]pyridin-6-yl}-8-(1,2,3,6-tetrahydropyridin-4-yl)quinoxaline-5-carboxamide] | 0.1 to 1 µM | < 100 nM |
| COc1cc2c(N3C[C@@H](C)N[C@@H](C)C3)ccc(C(=O)Nc3cc(F)c4nc(C)cn4c3)c2nn1 [Compound 273, 5-[(3R,5S)-3,5-dimethylpiperazin-1-yl]-N-{8-fluoro-2-methylimidazo[1,2-a]pyridin-6-yl}-3-methoxycinnoline-8-carboxamide] | 0.1 to 1 µM | 100 to 1000 nM |
| Cc1cn2cc(NC(=O)c3ccc(N4CC[C@@H](N(C)C)C4)c4nccnc34)cc(F)c2n1 [Compound 242, 8-[(3R)-3-(dimethylamino)pyrrolidin-1-yl]-N-{8-fluoro-2-methylimidazo[1,2-a]pyridin-6-yl}quinoxaline-5-carboxamide] | > 10 µM | 100 to 1000 nM |
| Cc1cn2cc(NC(=O)c3ccc(N4C[C@@H](C5CC5)N[C@@H](C)C4)c4nccnc34)cc(F)c2n1 [Compound 267, 8-((3R,5S)-3-cyclopropyl-5-methylpiperazin-1-yl)-N-(8-fluoro-2-methylimidazo[1,2-a]pyridin-6-yl)quinoxaline-5-carboxamide] | 1 to 10 µM | 100 to 1000 nM |
| Cc1cn2cc(NC(=O)c3ccc(N4C[C@@H](C)N[C@@H](C)C4)c4ncc(Cl)nc34)cc(F)c2n1 [Compound 281] | > 10 µM | 1000 to 10000 nM |
| Cc1cn2cc(NC(=O)c3ccc(N4CC[C@@H](N)C4)c4ccnnc34)cc(F)c2n1 [Compound 270] | > 10 µM | 100 to 1000 nM |
| Cc1cn2cc(NC(=O)c3ccc([C@H]4CCNC4)c4nccnc34)cc(F)c2n1 [Compound 246] | > 10 µM | 100 to 1000 nM |

Second part, the molecule after the results:

| IC50 [1] | IC50 [2] | Structure (SMILES) |
| --- | --- | --- |
| > 10 µM | 100 to 1000 nM | Cc1cn2cc(NC(=O)c3ccc(NC4CCNC4)c4nccnc34)cc(F)c2n1 (centres unmarked) [Compound 316] |
| > 10 µM | > 10000 nM | COc1nc2c(F)cc(NC(=O)c3ccc(N4C[C@@H](C)N[C@@H](C)C4)c4nccnc34)cc2o1 [Compound 342] |
| 1 to 10 µM | < 100 nM | CCOc1cnc2c(N3C[C@@H](C)N[C@@H](C)C3)ccc(C(=O)Nc3cc(F)c4nc(C)cn4c3)c2n1 [Compound 296] |
| 1 to 10 µM | 100 to 1000 nM | Cc1cn2cc(NC(=O)c3ccc(N4C[C@@H](C)N[C@@H](C)C4)c4cccnc34)cc(F)c2n1 [Compound 340] |
| 0.1 to 1 µM | 100 to 1000 nM | Cc1cn2nc(NC(=O)c3ccc(N4C[C@@H](C)N[C@@H](C)C4)c4nccnc34)cc2c(C)n1 [Compound 354] |
| 1 to 10 µM | 1000 to 10000 nM | Cc1cn2cc(NC(=O)c3ccc(N4CCN[C@@H](CF)C4)c4nccnc34)cc(F)c2n1 [Compound 367] |
| > 10 µM | 1000 to 10000 nM | COc1cn2cc(NC(=O)c3ccc(N4C[C@@H](C)N[C@@H](C)C4)c4nccnc34)cc(F)c2n1 [Compound 357] |
| 1 to 10 µM | < 100 nM | Cc1cn2cc(NC(=O)c3ccc(N4CCNC(C)(CO)C4)c4nccnc34)cc(F)c2n1 (centres unmarked) [Compound 368] |
| > 10 µM | 100 to 1000 nM | C[C@@H]1CN(c2ccc(C(=O)Nc3cc(F)c4nc(Cl)cn4c3)c3nccnc23)C[C@H](C)N1 [Compound 306] |
| 1 to 10 µM | 100 to 1000 nM | Cc1cn2cc(NC(=O)c3ccc(N4C[C@@H](C)N[C@@H](C)C4)c4ncc(OC5CC5)nc34)cc(F)c2n1 [Compound 351] |
| 1 to 10 µM | 100 to 1000 nM | Cc1cn2cc(NC(=O)c3ccc(N4C[C@@H](C)N[C@@H](C)C4)c4cncnc34)cc(F)c2n1 [Compound 302] |
| 1 to 10 µM | 100 to 1000 nM | Cc1cn2cc(NC(=O)c3ccc(N4CCN[C@H](CF)C4)c4nccnc34)cc(F)c2n1 [Compound 366] |
| > 10 µM | < 100 nM | Cc1cn2cc(NC(=O)c3ccc(N4C[C@@H](C)N[C@H](C)C4)c4nccnc34)cc(F)c2n1 [Compound 312] |
| 1 to 10 µM | < 100 nM | Cc1cn2cc(NC(=O)c3ccc(N4CCNC5(CCC5)C4)c4nccnc34)cc(F)c2n1 [Compound 363] |
| > 10 µM | 1000 to 10000 nM | C[C@@H]1CN(c2ccc(C(=O)Nc3cc(F)c4ncccc4c3)c3nccnc23)C[C@H](C)N1 [Compound 344] |
| 1 to 10 µM | 100 to 1000 nM | Cc1cn2cc(NC(=O)c3ccc(N4CCN[C@H](CO)C4)c4nccnc34)cc(F)c2n1 [Compound 362] |
| 1 to 10 µM | 100 to 1000 nM | COc1nc(NC(=O)c2ccc(N3C[C@@H](C)N[C@@H](C)C3)c3nccnc23)cc2cn(C)nc12 [Compound 352] |
| 1 to 10 µM | 100 to 1000 nM | Cc1cn2cc(NC(=O)c3ccc(N4CCC5(CCN5)C4)c4nccnc34)cc(F)c2n1 (centres unmarked) [Compound 339] |
| > 10 µM | 100 to 1000 nM | COc1nc(NC(=O)c2ccc(N3C[C@@H](C)N[C@@H](C)C3)c3nccnc23)cc2oc(C)nc12 [Compound 298] |
| > 10 µM | 100 to 1000 nM | Cc1cn2cc(NC(=O)c3ccc(N4CC[C@@H](N)C4)c4nccnc34)cc(F)c2n1 [Compound 315] |
| > 10 µM | 100 to 1000 nM | C[C@@H]1CN(c2ccc(C(=O)Nc3cc(F)c4nn(C)cc4c3)c3nccnc23)C[C@@H](C)N1 [Compound 335] |
